Biological target: Mcl-1 protein (Homo sapiens, UniProt Q07820)
Experiment: Inhibition of Mcl-1 by the fluorescence polarisation technique (Method 1 or Method 2)
Assay type: binding
Conditions: for IC50: fluorescence polarisation, Fluorescein labelled ligand, Method 1 (not underlined) or Method 2 (underlined), read-out: IC50 (μM) Mcl-1 FP; for percentage fluorescence polarisation inhibition, Mcl-1 FP: partial inhibitors
Procedure, shortened: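 Binding measured by FP, with Mcl-1 protein and fluorescein-labelled ligand mixed with compounds in an 11-point series at 5% final DMSO. Method 2 used 10 nM each of protein and ligand in phosphate buffer (20 mM Na2HPO4, 1 mM EDTA, 50 mM NaCl, pH 7.4); Method 1 used 5 nM protein, 1 nM ligand in HEPES buffer (10 mM HEPES, 150 mM NaCl, 0.05% Tween 20, pH 7.4).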

Sequence of Mcl-1 protein (Q07820 whole entry): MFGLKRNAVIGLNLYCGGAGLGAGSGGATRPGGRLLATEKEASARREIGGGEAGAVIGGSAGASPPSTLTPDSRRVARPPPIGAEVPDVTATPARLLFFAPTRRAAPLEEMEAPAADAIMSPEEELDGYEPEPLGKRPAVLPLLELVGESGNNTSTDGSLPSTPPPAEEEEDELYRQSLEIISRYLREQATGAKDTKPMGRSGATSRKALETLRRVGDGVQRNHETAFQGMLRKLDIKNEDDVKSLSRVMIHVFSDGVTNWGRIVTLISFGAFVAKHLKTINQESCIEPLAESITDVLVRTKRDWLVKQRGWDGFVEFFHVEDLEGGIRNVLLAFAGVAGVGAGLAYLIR

SMILES | IC50 | other results
CCc1sc2ncnc(NC(Cc3ccccc3)C(=O)O)c2c1-c1cccc(F)c1C [Example 70, N-[6-ethyl-(5Ra)-5-(3-fluoro-2-methylphenyl)thieno[2,3-d]pyrimidin-4-yl]-D-phenylalanine] | 0.974 µM | –
O=C(O)C(Cc1ccccn1)Nc1ncnc2sc(C(F)F)c(-c3cccc4ccccc34)c12 [Example 251, N-[6-(difluoromethyl)-(5Ra)-5-(naphthalen-1-yl)thieno[2,3-d]pyrimidin-4-yl]-3-pyridin-2-yl-D-alanine] | 12.1 µM | –
CCc1sc2ncnc(NC(Cc3ccccc3[N+](=O)[O-])C(=O)O)c2c1-c1cccc(Cl)c1C [Example 136, N-[(5Sa)-5-(3-chloro-2-methylphenyl)-6-ethylthieno[2,3-d]pyrimidin-4-yl]-2-nitro-D-phenylalanine] | 0.146 µM | –
CCc1sc2ncnc(NC(Cc3ccccc3)C(=O)O)c2c1-c1ccc(OCC(=O)O)c(Cl)c1C [Example 57, N-{(5Sa)-5-[4-(carboxymethoxy)-3-chloro-2-methylphenyl]-6-ethylthieno[2,3-d]pyrimidin-4-yl}-D-phenylalanine] | 0.106 µM | –
CCc1sc2ncnc(N[C@H](CC3CCCCC3)C(=O)O)c2c1-c1cccc2[nH]ccc12 (single isomer, unassigned) [Example 243, 3-cyclohexyl-N-[6-ethyl-5-(1H-indol-4-yl)thieno[2,3-d]pyrimidin-4-yl]-D-alanine] | 0.073 µM | –
CCc1sc2ncnc(N[C@@H](C(=O)O)c3cccc(-c4ccccc4)c3)c2c1-c1cccc2ccccc12 (single isomer, unassigned) [Example 189] | 8.33 µM | –
CCc1sc2ncnc(N[C@H](Cc3ccccc3)C(=O)O)c2c1-c1cccc(F)c1C [Example 68, N-[6-ethyl-5-(3-fluoro-2-methylphenyl)thieno[2,3-d]pyrimidin-4-yl]-D-phenylalanine] | 0.142 µM | –
CCc1sc2ncnc(NC(Cc3ccccc3)C(=O)O)c2c1-c1cccc(OC)c1C [Example 76, N-[6-ethyl-(5Ra)-5-(3-methoxy-2-methylphenyl)thieno[2,3-d]pyrimidin-4-yl]-D-phenylalanine] | 3.18 µM | –
C=C(C)c1sc2ncnc(NC(Cc3ccccc3)C(=O)O)c2c1-c1cccc2ccccc12 [Example 107, N-[(5Ra)-5-(naphthalen-1-yl)-6-(prop-1-en-2-yl)thieno[2,3-d]pyrimidin-4-yl]-D-phenylalanine] | 0.544 µM | –
CCc1sc2ncnc(NC(Cc3ccccc3OCc3cccc(Cl)c3)C(=O)O)c2c1-c1cccc(Cl)c1C [Example 150, 2-[(3-chlorobenzyl)oxy]-N-[(5Sa)-5-(3-chloro-2-methylphenyl)-6-ethylthieno[2,3-d]pyrimidin-4-yl]-D-phenylalanine] | 0.528 µM | –
CCc1sc2ncnc(NC(Cc3ccccc3)C(=O)O)c2c1-c1cccc2c1c(Cl)cn2CCN1CCN(C)CC1 [Example 238, N-((5Sa)-5-{3-chloro-1-[2-(4-methylpiperazin-1-yl)ethyl]-1H-indol-4-yl}-6-ethyl-thieno[2,3-d]pyrimidin-4-yl)-D-phenylalanine] | 2.78 µM | –
COc1ccccc1C[C@@H](Nc1ncnc2sc(C(C)C)c(-c3cccc(Cl)c3C)c12)C(=O)O [Example 222, N-[(5Ra)-5-(3-chloro-2-methylphenyl)-6-(propan-2-yl)thieno[2,3-d]pyrimidin-4-yl]-2-methoxy-D-phenylalanine] | – | percentage fluorescence polarisation inhibition, Mcl-1 FP (@ 50 μM test compound): 70% @ 50 μM
CC(C)c1sc2ncnc(N[C@H](Cc3ccccc3)C(=O)O)c2c1-c1cccc2ccccc12 (single isomer, unassigned) [Example 201, N-[5-(naphthalen-1-yl)-6-(propan-2-yl)thieno[2,3-d]pyrimidin-4-yl]-D-phenylalanine] | 0.136 µM | –
COc1ccccc1CC(Nc1ncnc2sc(C(C)C)c(-c3cccc(Cl)c3C)c12)C(=O)O [Example 223, N-[(5Sa)-5-(3-chloro-2-methylphenyl)-6-(propan-2-yl)thieno[2,3-d]pyrimidin-4-yl]-2-methoxy-D-phenylalanine] | 0.086 µM | –
CCc1sc2ncnc(NC(Cc3ccccc3)C(=O)O)c2c1-c1ccc(OCCN2CCOCC2)c(Cl)c1C [Example 61, N-((5Sa)-5-{3-chloro-2-methyl-4-[2-(morpholin-4-yl)ethoxy]phenyl}-6-ethylthieno[2,3-d]pyrimidin-4-yl)-D-phenylalanine] | 0.036 µM | –
CCc1sc2ncnc(NC(Cc3ccccc3OCCCN(C)C)C(=O)O)c2c1-c1cccc(Cl)c1C [Example 158, N-[(5Sa)-5-(3-chloro-2-methylphenyl)-6-ethylthieno[2,3-d]pyrimidin-4-yl]-2-[3-(dimethylamino)propoxy]-D-phenylalanine] | 0.104 µM | –
Cc1c(Cl)cccc1-c1c(C(C)C)sc2ncnc(N[C@H](Cc3ccccc3)C(=O)O)c12 [Example 220, N-[(5Ra)-5-(3-chloro-2-methylphenyl)-6-(propan-2-yl)thieno[2,3-d]pyrimidin-4-yl]-D-phenylalanine] | – | percentage fluorescence polarisation inhibition, Mcl-1 FP (@ 10 μM test compound): 31.7% @ 10 μM
C=Cc1sc2ncnc(NC(Cc3ccccc3)C(=O)O)c2c1-c1cccc2ccccc12 [Example 102, N-[6-ethenyl-(5Sa)-5-(naphthalen-1-yl)thieno[2,3-d]pyrimidin-4-yl]-D-phenylalanine] | 0.073 µM | –
CCc1sc2ncnc(NC(Cc3ccccc3Br)C(=O)O)c2c1-c1cccc(Cl)c1C [Example 140, 2-bromo-N-[(5Sa)-5-(3-chloro-2-methylphenyl)-6-ethylthieno[2,3-d]pyrimidin-4-yl]-D-phenylalanine] | 0.208 µM | –
CCc1sc2ncnc(NC(CC3CCCCC3)C(=O)O)c2c1-c1cccc2ccccc12 [Example 165, 3-cyclohexyl-N-[6-ethyl-(5Ra)-5-(naphthalen-1-yl)thieno[2,3-d]pyrimidin-4-yl]-D-alanine] | 0.315 µM | –
CCc1sc2ncnc(N[C@H](Cc3ccccc3)C(=O)O)c2c1-c1ccc(OCCN2CCN(C)CC2)c(Cl)c1C [Example 63, N-((5Ra)-5-{3-chloro-2-methyl-4-[2-(4-methylpiperazin-1-yl)ethoxy]phenyl}-6-ethylthieno[2,3-d]pyrimidin-4-yl)-D-phenylalanine] | – | percentage fluorescence polarisation inhibition, Mcl-1 FP (@ 10 μM test compound): 12.18% @ 10 μM
CCc1sc2ncnc(NC(Cc3ccccc3)C(=O)O)c2c1-c1cc(Cl)c(O)c(Cl)c1C [Example 52, N-[(5Ra)-5-(3,5-dichloro-4-hydroxy-2-methylphenyl)-6-ethylthieno[2,3-d]pyrimidin-4-yl]-D-phenylalanine] | 0.301 µM | –
CCc1sc2ncnc(NC(Cc3ccccn3)C(=O)O)c2c1-c1cccc(Cl)c1C [Example 152, N-[(5Sa)-5-(3-chloro-2-methylphenyl)-6-ethylthieno[2,3-d]pyrimidin-4-yl]-3-pyridin-2-yl-D-alanine] | 0.047 µM | –

Continued, in another order:

IC50 | SMILES | other results
1.23 µM | CCc1sc2ncnc(NC(Cc3ccccc3)C(=O)O)c2c1-c1cccc2cnn(C)c12 [Example 88, N-[6-ethyl-(5Sa)-5-(1-methyl-1H-indazol-7-yl)thieno[2,3-d]pyrimidin-4-yl]-D-phenylalanine] | –
12 µM | CCc1sc2ncnc(N[C@H](Cc3ccccc3)C(=O)O)c2c1-c1cccc2cc[nH]c12 (single isomer, unassigned) [Example 72, N-[6-ethyl-5-(1H-indol-7-yl)thieno[2,3-d]pyrimidin-4-yl]-D-phenylalanine] | –
2.91 µM | Cc1sc2ncnc(N[C@H](Cc3ccccc3)C(=O)O)c2c1-c1cccc2ccccc12 [Example 196, N-[6-methyl-5-(naphthalen-1-yl)thieno[2,3-d]pyrimidin-4-yl]-D-phenylalanine] | –
1.75 µM | CCc1sc2ncnc(N[C@H](Cc3cn(C)cn3)C(=O)O)c2c1-c1cccc2ccccc12 [Example 194, N-[6-ethyl-5-(naphthalen-1-yl)thieno[2,3-d]pyrimidin-4-yl]-1-methyl-D-histidine] | –
0.955 µM | CCc1sc2ncnc(NC(CCc3ccccc3)C(=O)O)c2c1-c1cccc2ccccc12 [Example 170, (2R)-2-{[6-ethyl-(5Sa)-5-(naphthalen-1-yl)thieno[2,3-d]pyrimidin-4-yl]amino}-4-phenylbutanoic acid] | –
0.407 µM | CCc1sc2ncnc(N[C@H](Cc3ccccc3OC)C(=O)O)c2c1-c1cccc2ccccc12 [Example 182, N-[6-ethyl-5-(naphthalen-1-yl)thieno[2,3-d]pyrimidin-4-yl]-2-methoxy-D-phenylalanine] | –
8.37 µM | CCc1sc2ncnc(NC(Cc3cccnc3)C(=O)O)c2c1-c1cccc2ccccc12 [Example 163, N-[6-ethyl-(5Ra)-5-(naphthalen-1-yl)thieno[2,3-d]pyrimidin-4-yl]-3-pyridin-3-yl-D-alanine] | –
6.79 µM | CCc1sc2ncnc(NC(Cc3ccc(O)cc3)C(=O)O)c2c1-c1cccc2ccccc12 [Example 173, N-[6-ethyl-(5Sa)-5-(naphthalen-1-yl)thieno[2,3-d]pyrimidin-4-yl]-D-tyrosine] | –
39 µM | CCc1sc2ncnc(N[C@H](Cc3ccccc3)C(=O)O)c2c1-c1cccc2cc[nH]c12 (single isomer, unassigned) [Example 71, N-[6-ethyl-5-(1H-indol-7-yl)thieno[2,3-d]pyrimidin-4-yl]-D-phenylalanine] | –
4.75 µM | CCc1sc2ncnc(NC(Cc3ccccc3)C(=O)O)c2c1-c1cccc2ccccc12 [Example 100, N-[6-ethyl-(5Ra)-5-(naphthalen-1-yl)thieno[2,3-d]pyrimidin-4-yl]-D-phenylalanine] | –
36.5 µM | CCc1sc2ncnc(N[C@H](Cc3ccncc3)C(=O)O)c2c1-c1cccc2ccccc12 [Example 193, N-[6-ethyl-5-(naphthalen-1-yl)thieno[2,3-d]pyrimidin-4-yl]-3-pyridin-4-yl-D-alanine] | –
8.41 µM | CCc1sc2ncnc(NC(Cc3ccc(F)cc3)C(=O)O)c2c1-c1cccc2ccccc12 [Example 176, N-[6-ethyl-(5Ra)-5-(naphthalen-1-yl)thieno[2,3-d]pyrimidin-4-yl]-4-fluoro-D-phenylalanine] | –

Reference: patent US10457687B2, “Aminoacid derivatives, a process for their preparation and pharmaceutical compositions containing them” (LES LABORATOIRES SERVIER, priority 2015, dated 2019)
